Reference: article PMC3328449, “Inhibition of Diacylglycerol–Sensitive TRPC Channels by Synthetic and Natural Steroids” (PLoS ONE, 2012)
Values joined by “and” are separate entries in the source; they are usually repeats but may differ in a detail not shown here. Identical values can stand only once.

Target: T1, hTRPC6 (Homo sapiens, UniProt Q9Y210)
T1 construct: expressed in transfected cells
T1 sequence (Q9Y210 1-931): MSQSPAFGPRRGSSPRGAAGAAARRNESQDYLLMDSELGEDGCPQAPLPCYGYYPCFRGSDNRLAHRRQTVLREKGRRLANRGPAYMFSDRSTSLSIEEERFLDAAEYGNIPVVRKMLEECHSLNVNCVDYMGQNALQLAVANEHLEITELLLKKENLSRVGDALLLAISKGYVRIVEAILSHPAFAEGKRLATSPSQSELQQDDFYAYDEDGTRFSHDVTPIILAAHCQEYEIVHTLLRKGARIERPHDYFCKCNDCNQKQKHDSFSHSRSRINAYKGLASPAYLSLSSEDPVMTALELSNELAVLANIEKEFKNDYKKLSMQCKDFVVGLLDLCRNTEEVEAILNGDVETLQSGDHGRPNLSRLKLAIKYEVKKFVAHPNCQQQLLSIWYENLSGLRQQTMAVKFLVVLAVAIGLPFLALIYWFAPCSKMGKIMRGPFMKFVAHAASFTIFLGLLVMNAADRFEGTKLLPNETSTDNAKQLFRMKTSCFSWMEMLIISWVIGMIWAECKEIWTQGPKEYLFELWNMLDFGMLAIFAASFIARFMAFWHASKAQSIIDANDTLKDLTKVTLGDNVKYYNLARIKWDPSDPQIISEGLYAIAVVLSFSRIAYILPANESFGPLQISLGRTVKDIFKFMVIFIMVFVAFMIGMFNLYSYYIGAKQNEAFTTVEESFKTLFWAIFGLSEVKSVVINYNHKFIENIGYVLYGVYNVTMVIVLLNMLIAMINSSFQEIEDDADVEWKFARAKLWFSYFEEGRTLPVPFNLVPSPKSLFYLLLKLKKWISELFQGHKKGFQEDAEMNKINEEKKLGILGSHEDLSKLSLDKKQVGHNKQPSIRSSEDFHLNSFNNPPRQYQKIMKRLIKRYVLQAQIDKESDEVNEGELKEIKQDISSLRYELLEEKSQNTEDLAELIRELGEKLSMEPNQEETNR
Assay: Whole-cell patch clamp, AlF4- evoked TRPC6 currents
Format: cell-based
Method: Cells were grown at 37°C in a humidified atmosphere (5% or 7% CO2) under standard cell culture conditions. Stable human embryonic kidney (HEK) cell lines expressing recombinant mTRPC4ß (GenBank accession number AAC05178); mTRPC5 (GenBank accession number NM_009428) or hTRPC6 (GenBank accession number AF080394) under the control of a tetracycline-inducible promoter were generated using the Flp-In T-Rex (FITR) system (Invitrogen, Karlsruhe, Germany). TRPC4/5/6 HEK-FITR cells were maintained in Dulbecco's modified eagle medium (DMEM, with glutaMAX I, 4.5 g/l glucose and […] sodium pyruvate) supplemented with 10% (v/v) fetal bovine serum (Biochrom, Berlin, Germany), 1 mM glutamine, 1 mM MEM sodium pyruvate, 40 µg/ml hygromycin (50 µg/ml for mTRPC5 HEK-FITR cells), and 15 µg/ml blasticidine HCl. Channel expression was induced by supplementing the growth medium for 18–24 h with 1 µg/ml doxycycline.
The whole-cell patch clamp technique was employed to measure ion currents from single cells. […]
Cells grown on poly-L-lysine-coated coverslips were continuously superfused with extracellular solution and substances were applied using an ALA BPS-8 perfusion system (ALA Scientific Instruments, Westbury, USA). […] Cells were held at −70 mV, and current-voltage (I–V) relationships were routinely measured every 2 or 3 s by applying voltage ramps (180 ms) from −100 mV to +80 mV. […]
For statistical analysis, analysis of variance was performed with Origin 6.0 software (Microcal Software Inc., Northampton, USA). […] IC50 were calculated with SigmaPlot (Systat software, San Jose, USA) using the sigmoidal Hill-model: f = 100 (C^n/(IC50 ^n+C^n)); where f is the inhibition, C is the applied drug concentration and n is the Hill coefficient. The half maximal effective concentration (EC50) of norgestimate-induced vasorelaxation was calculated analogously with R = y0+y1C^n/(EC50 ^n+C^n); where R is relaxation, yo and y1 are constants, C is the applied drug concentration and n is the Hill coefficient. Averaged data is expressed as means ± SEM.

Inhibition of TRPC6 currents (10 µM, whole-cell patch clamp, AlF4- infusion): almost completely inhibited
Hill slope, TRPC6 current inhibition (fit to dose-response equation): 1.19
IC50 (whole-cell patch clamp, AlF4- infusion, read-out: IC50, TRPC6 current inhibition): 3.06 µM and ~3 µM
SMILES: C#C[C@]1(OC(C)=O)CC[C@H]2[C@@H]3CCC4=CC(=NO)CC[C@@H]4[C@H]3CC[C@@]21CC (mixture of isomers) [norgestimate]
